Reference: patent US11247985B2, “Phenyl indole allosteric inhibitors of P97 ATPase” (University of Pittsburgh—Of the Commonwealth System of …, priority 2015, dated 2022)

These compounds were tested against p97 ATPase WT (Homo sapiens (Human), UniProt P55072) (assay: p97 ADP-Glo assay). Conditions: Table 3; read-out: ADPGlo IC50.
Assay type: biochemical
Excerpt: ADP-Glo™ (Promega Corp.) is a bioluminescent, homogeneous assay that measures ADP formed from a biochemical reactions. Because of its high sensitivity, the assay is suitable for monitoring enzyme activities at very early substrate conversions requiring very low amount of enzymes.
The ADP-Glo assay can be conducted as described in Chou, T.-F.; Bulfer, S. L.; Weihl, C.

Chain of p97 ATPase WT (P55072 whole entry): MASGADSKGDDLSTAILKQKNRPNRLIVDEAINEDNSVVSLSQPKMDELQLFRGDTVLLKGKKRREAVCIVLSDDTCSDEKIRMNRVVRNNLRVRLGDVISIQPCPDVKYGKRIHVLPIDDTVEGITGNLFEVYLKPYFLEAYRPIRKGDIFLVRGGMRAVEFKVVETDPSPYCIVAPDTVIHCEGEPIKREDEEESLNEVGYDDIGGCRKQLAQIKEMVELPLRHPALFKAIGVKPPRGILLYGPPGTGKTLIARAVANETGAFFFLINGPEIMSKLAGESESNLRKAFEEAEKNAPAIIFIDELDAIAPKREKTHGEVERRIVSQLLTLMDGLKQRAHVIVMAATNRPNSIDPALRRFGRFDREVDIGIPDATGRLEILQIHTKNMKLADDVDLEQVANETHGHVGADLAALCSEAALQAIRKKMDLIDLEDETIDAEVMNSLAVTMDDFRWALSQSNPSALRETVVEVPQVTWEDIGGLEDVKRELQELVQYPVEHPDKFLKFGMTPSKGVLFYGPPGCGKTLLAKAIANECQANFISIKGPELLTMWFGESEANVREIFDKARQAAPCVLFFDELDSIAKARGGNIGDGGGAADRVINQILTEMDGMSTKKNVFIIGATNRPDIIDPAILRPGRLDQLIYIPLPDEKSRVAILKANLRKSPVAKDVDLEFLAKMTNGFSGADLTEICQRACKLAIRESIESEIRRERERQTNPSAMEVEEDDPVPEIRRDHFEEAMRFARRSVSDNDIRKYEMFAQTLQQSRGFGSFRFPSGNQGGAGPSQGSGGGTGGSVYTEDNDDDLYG

| IC50 [nM] | SMILES |
| --- | --- |
| 300 | COCCN1CCN(CCNC2CCN(c3cccc(-c4cc5ccccc5[nH]4)c3)CC2)CC1 |
| 540 | CC(C)N1CCN(CCNC2CCN(c3cccc(-c4cc5ccc(F)cc5[nH]4)c3)CC2)CC1 |
| 210 | CN1CCN(CCCNC2CCN(c3cccc(-c4cc5ccccc5[nH]4)c3)CC2)CC1 |
| 630 | CNC(=O)CCNC1CCN(c2cccc(-c3cc4cc(F)ccc4[nH]3)c2)CC1 |
| 170 | c1cc(-c2cc3ccccc3[nH]2)cc(N2CCC(NCCN3CCN(CC4CC4)CC3)CC2)c1 |
| 640 | CCC(C)N1CCN(CCCNC2CCN(c3cccc(-c4cc5ccccc5[nH]4)c3)CC2)CC1 (stereo not drawn) |
| 140 | C[C@@H]1CN(CCNC2CCN(c3cccc(-c4cc5ccccc5[nH]4)c3)CC2)C[C@H](C)N1C |
| 660 | COc1ccc2[nH]c(-c3cccc(N4CCC(NCCN5CCN(C(C)C)CC5)CC4)c3)cc2c1 |
| 1700 | CCOC(=O)Nc1cccc(N2CCC(NCCN3CCN(C(C)C)CC3)CC2)c1 |
| 15 | CN1CCN(C2(CNC3CCN(c4cccc(-c5cc6cc(F)ccc6[nH]5)c4)CC3)CCC2)CC1 |
| 1800 | NC1CCN(c2cccc(-c3cc4ccccc4[nH]3)c2)CC1 |
| 15 | CC(C)N1CCN(C2(CNC3CCN(c4cccc(-c5cc6cc(C#N)ccc6[nH]5)c4)CC3)CCC2)CC1 |
| 1900 | CC(C)N1CCN(CCNC2CCN(c3cccc(-c4cc5ccccc5[nH]4)c3)CC2)C(=O)C1 |
| 25 | Cc1ccc(N2CCC(NCCN3CCN(C(C)C)CC3)CC2)cc1-c1cc2cc(F)ccc2[nH]1 |
| 2200 | Cn1ncnc1CCNC1CCN(c2cccc(-c3cc4cc(F)c(F)cc4[nH]3)c2)CC1 |
| 26 | CC(C)N1CCN(CCNC2CCN(c3cccc(-c4cc5cc(C#N)ccc5[nH]4)c3)CC2)CC1 |
| 2400 | CC(C)(C)OC(=O)N1CCN(CCNC2CCN(c3cccc(-c4cc5ccccc5[nH]4)c3)CC2)CC1 |
| 26 | CN1CCN(C2(CNC3CCN(c4cccc(-c5cc6cc(C#N)ccc6[nH]5)c4)CC3)CCC2)CC1 |
| 2400 | FC1(F)CCN(CCNC2CCN(c3cccc(-c4cc5ccccc5[nH]4)c3)CC2)CC1 |
| 27 | CC(C)N1CCN(CCNC2CCN(c3cccc(-c4cc5cc(F)ccc5[nH]4)c3)CC2)CC1 |
| 3300 | CC(C)N1CCN(CCNC2CCN(c3cccc(-c4cc5cccc(F)c5[nH]4)c3)CC2)CC1 |
| 3700 | CC(C)N1CCN(CCNC2CCN(c3cccc(-c4cc5cc(OC(F)(F)F)ccc5[nH]4)c3)CC2)CC1 |

| IC50 [nM] | SMILES |
| --- | --- |
| 41 | CC(C)N1CCN(C2(CNC3CCN(c4cccc(-c5cc6cc(F)ccc6[nH]5)c4)CC3)COC2)CC1 |
| 3800 | CC(C)N1CCN(CCNC2CCN(c3cccc(-c4cc5cnccc5[nH]4)c3)CC2)CC1 |
| 3800 | CC(C)N1CCN(C2(CNC(=O)C3CCN(c4cccc(-c5cc6cc(F)ccc6[nH]5)c4)CC3)CCC2)CC1 |
| 49 | CC(C)N1CCC(NC2CCN(c3cccc(-c4cc5cc(F)ccc5[nH]4)c3)CC2)CC1 |
| 3900 | CC(C)N1CCC(NC(=O)C2CCN(c3cccc(-c4cc5cc(F)ccc5[nH]4)c3)CC2)CC1 |
| 82 | Cc1ccc(N2CCC(NC3CCN(C)CC3)CC2)cc1-c1cc2cc(F)ccc2[nH]1 |
| 86 | Cc1ccc(N2CCC(NCCN3CCN(C(C)C)CC3)CC2)cc1-c1cc2cc(C#N)ccc2[nH]1 |
| 4300 | CC(C)N1CCN(C2CCN(c3cccc(-c4cc5cc(F)ccc5[nH]4)c3)CC2)CC1 |
| 87 | CC(C)N1CCN(CCNC2CCN(c3cccc(-c4cc5cc(C(N)=O)ccc5[nH]4)c3)CC2)CC1 |
| 4500 | Cc1ccc(N2CCC(NCCc3ncnn3C)CC2)cc1-c1cc2ccccc2[nH]1 |
| 92 | CC(C)N1CCC(NC2CCN(c3cccc(-c4cc5cc(Cl)ccc5[nH]4)c3)CC2)CC1 |
| 4600 | CC(C)N1CCN(CCNC2CCN(c3cccc(-c4cc5ccc([N+](=O)[O-])cc5[nH]4)c3)CC2)CC1 |
| 100 | CC(C)N1CCN(CCNC2CCN(c3cccc(-c4cc5cc(O)ccc5[nH]4)c3)CC2)CC1 |
| 100 | Cc1ccc(N2CCC(NCC3(N4CCN(C(C)C)CC4)CCC3)CC2)cc1-c1cc2cc(C#N)ccc2[nH]1 |
| 5100 | CC(C)N1CCN(CCNC2CCN(c3cccc(-c4ccc5ccccc5c4)c3)CC2)CC1 |
| 110 | CN1CCN(C2(CNC3CCN(c4cccc(-c5cc6cc(Cl)ccc6[nH]5)c4)CC3)CCC2)CC1 |
| 5200 | CC(C)N1CCN(CCNC2CCN(c3cccc(-c4cc5ccc(N)cc5[nH]4)c3)CC2)CC1 |
| 110 | CC(C)N1CCN(C2(CNC3CCN(c4cccc(-c5cc6cc(C#N)ccc6[nH]5)c4)CC3)COC2)CC1 |
| 5300 | CC(C)N1CCN(CCNC2CCN(c3cccc(-c4cc5cc(F)cnc5[nH]4)c3)CC2)CC1 |
| 110 | Cc1ccc(N2CCC(NC3CCN(C(C)C)CC3)CC2)cc1-c1cc2cc(C#N)ccc2[nH]1 |
| 5600 | [N-]=[N+]=Nc1ccc(NCCNC2CCN(c3cccc(-c4cc5ccccc5[nH]4)c3)CC2)cc1 |
| 110 | CCC(C)N1CCN(CCNC2CCN(c3cccc(-c4cc5ccccc5[nH]4)c3)CC2)CC1 (stereo not drawn) |

| IC50 [nM] | SMILES |
| --- | --- |
| 5800 | CC(C)N1CCN(CC=C2CCN(c3cccc(-c4cc5ccccc5[nH]4)c3)CC2)CC1 |
| 120 | CC(C)N1CCN(CCNC2CCN(c3cccc(-c4cc5cc(Cl)ccc5[nH]4)c3)CC2)CC1 |
| 6000 | CC(C)N1CCN(CCC2CCN(c3cccc(-c4cc5ccccc5[nH]4)c3)CC2)CC1 |
| 120 | CC(C)N1CCN(C(=O)CCNC2CCN(c3cccc(-c4cc5cc(F)ccc5[nH]4)c3)CC2)CC1 |
| 130 | CC(C)N1CCC(NC2CCN(c3cccc(-c4cc5ccccc5[nH]4)c3)CC2)CC1 |
| 6100 | CC(C)N1CCN(CCNC2CCN(c3cccc(-c4cc5ccc(C#N)cc5[nH]4)c3)CC2)CC1 |
| 130 | CN1CCC(NC2CCN(c3cccc(-c4cc5cc(C#N)ccc5[nH]4)c3)CC2)CC1 |
| 6200 | CC(C)[C@H]1CC[C@H](NC2CCN(c3cccc(-c4cc5cc(C#N)ccc5[nH]4)c3)CC2)CC1 |
| 130 | CC(C)N1CCN(C2(CNC3CCN(c4cccc(-c5cc6cc(F)ccc6[nH]5)c4)CC3)CCC2)CC1 |
| 7100 | CC(C)N1CCN(CCNC2CCN(c3cccc(-c4nc5ccccc5n4-c4ccc(C(c5ccccc5)c5ccccc5)cc4)c3)CC2)CC1 |
| 130 | CC(C)(C)N1CCN(CCNC2CCN(c3cccc(-c4cc5ccccc5[nH]4)c3)CC2)CC1 |
| 7340 | CC(C)N1CCN(CCNC(=O)CC2CCN(c3cccc(-c4cc5ccccc5[nH]4)c3)CC2)CC1 |
| 140 | CN1CCN(C2(CNC3CCN(c4cccc(-c5cc6ccccc6[nH]5)c4)CC3)CCC2)CC1 |
| 7500 | CC(C)N1CCC(NC2CCN(c3cccc(-c4cc5cc(S(=O)(=O)NCc6ccccc6)ccc5[nH]4)c3)CC2)CC1 |
| 140 | CC(C)N1CCN(C(=O)CCNC2CCN(c3cccc(-c4cc5ccccc5[nH]4)c3)CC2)CC1 |
| 7580 | CC(C)N1CCN(CCNC(=O)C=C2CCN(c3cccc(-c4cc5ccccc5[nH]4)c3)CC2)CC1 |
| 140 | Cc1ccc(N2CCC(NCCN3CCN(C(C)C)CC3)CC2)cc1-c1cc2ccccc2[nH]1 |
| 7600 | CC(C)N1CCN(CC(=O)NC2CCN(c3cccc(-c4cc5ccccc5[nH]4)c3)CC2)CC1 |
| 150 | CC(C)N1CCCN(CCNC2CCN(c3cccc(-c4cc5ccccc5[nH]4)c3)CC2)CC1 |
| 8000 | CC(C)N1CCN(CCNC2CCN(c3cncc(-c4cc5ccccc5[nH]4)c3)CC2)CC1 |
| 150 | CN1CCN(C(=O)CCNC2CCN(c3cccc(-c4cc5cc(F)ccc5[nH]4)c3)CC2)CC1 |
| 8600 | CC(C)N1CCC(NC2CCN(c3cccc(-c4cc5cc(S(N)(=O)=O)ccc5[nH]4)c3)CC2)CC1 |

| IC50 [nM] | SMILES |
| --- | --- |
| 150 | COC(=O)c1ccc2[nH]c(-c3cccc(N4CCC(NCCN5CCN(C(C)C)CC5)CC4)c3)cc2c1 |
| 9300 | CC(C)N1CCN(CCNC2CCN(c3cccc(-c4[nH]c5ccc(F)cc5c4-c4c(-c5cccc(N6CCC(NCCN7CCN(C(C)C)CC7)CC6)c5)[nH]c5ccc(F)cc45)c3)CC2)CC1 |
| 150 | CC(C)N1CCN(C(=O)CCNC2CCN(c3cccc(-c4cc5cc(C#N)ccc5[nH]4)c3)CC2)CC1 |
| 9700 | O=C(Nc1ccccn1)C1CCN(c2cccc(-c3cc4cc(F)ccc4[nH]3)c2)CC1 |
| 160 | N#Cc1ccc2[nH]c(-c3cccc(N4CCC(NCc5cccc(N=[N+]=[N-])c5)CC4)c3)cc2c1 |
| 11000 | CC(C)N1CCN(CCNC2CCN(c3cccc(-c4cc5c([nH]4)CCNC5)c3)CC2)CC1 |
| 11000 | Fc1ccc2[nH]c(-c3cccc(N4CCC(NCCc5c[nH]c6ccccc56)CC4)c3)cc2c1 |
| 180 | CN1CCC(NC2CCN(c3cccc(-c4cc5cc(F)ccc5[nH]4)c3)CC2)CC1 |
| 12000 | Cc1c(-c2cccc(N3CCC(NCCN4CCN(C(C)C)CC4)CC3)c2)[nH]c2ccccc12 |
| 200 | CC(C)N1CCN(CCNC2CCN(c3cccc(-c4cc5cc(N=[N+]=[N-])ccc5[nH]4)c3)CC2)CC1 |
| 12000 | CC(C)N1CCN(CCOC2CCN(c3cccc(-c4cc5ccccc5[nH]4)c3)CC2)CC1 |
| 13600 | CC(C)N1CCN(CCNC2CCN(C(=O)c3cccc(-c4cc5ccccc5[nH]4)c3)CC2)CC1 |
| 260 | CN1CCN(C2(CNC3CCN(c4cccc(-c5cc6ccccc6[nH]5)c4)CC3)CCCCC2)CC1 |
| 14000 | Cc1c(-c2cc3ccccc3[nH]2)cccc1N1CCC(NCCN2CCN(C(C)C)CC2)CC1 |
| 290 | N#Cc1ccc2[nH]c(-c3cccc(N4CCC(NCc5cccnc5)CC4)c3)cc2c1 |
| 14000 | CC(C)N1CCC(NC2CCN(c3cccc(-c4cc5cc(S(=O)(=O)NC(C)(C)C)ccc5[nH]4)c3)CC2)CC1 |
| 290 | CN1CCN(C(=O)CCNC2CCN(c3cccc(-c4cc5ccccc5[nH]4)c3)CC2)CC1 |
| 15000 | Cc1c(-c2cc3ccccc3[nH]2)cccc1N1CCC(NC2CCN(C)CC2)CC1 |
| 310 | c1cc(-c2cc3ccccc3[nH]2)cc(N2CCC(NCCN3CCNCC3)CC2)c1 |

| SMILES | IC50 [nM] |
| --- | --- |
| CC(C)N1CCN(CCNC2CCN(c3cccc(-c4cc5cc(C(F)(F)F)ccc5[nH]4)c3)CC2)CC1 | 6000 |
| Cc1ccc2[nH]c(-c3cccc(N4CCC(NCCN5CCN(C(C)C)CC5)CC4)c3)cc2c1 | 200 |
